Source: the NIST ThermoML archive (doi:10.1016/j.jct.2012.03.015)
Numbers after ± are expanded uncertainties.

Test: activity coefficient (dimensionless); of the first substance listed, at infinite dilution; xn = mol fraction of the nth substance listed
Settings: 101 kPa, Liquid, Chromatography, x1 = 0

Structure (SMILES) | activity coefficient (318.15 K) | activity coefficient (328.15 K) | activity coefficient (338.15 K) | activity coefficient (348.15 K) | activity coefficient (358.15 K) | activity coefficient (368.15 K)
CCC(=O)OC [methyl propanoate] + COCC[N+]1(C)CCCC1.O=S(=O)([N-]S(=O)(=O)C(F)(F)F)C(F)(F)F | 0.92 ± 0.06 | 0.94 ± 0.06 | 0.96 ± 0.06 | 0.98 ± 0.06 | 0.99 ± 0.06 | 1.01 ± 0.06
CC1CCCCC1 [methylcyclohexane] + COCC[N+]1(C)CCCC1.O=S(=O)([N-]S(=O)(=O)C(F)(F)F)C(F)(F)F | 15.4 ± 1.1 | 14.4 ± 1 | 13.5 ± 0.9 | 12.7 ± 0.9 | 12 ± 0.8 | 11.2 ± 0.8
CCCCCCCCC [nonane] + COCC[N+]1(C)CCCC1.O=S(=O)([N-]S(=O)(=O)C(F)(F)F)C(F)(F)F | 58.1 ± 4 | 52.9 ± 3.6 | 48.4 ± 3.3 | 44.3 ± 3 | 41 ± 2.8 | 37.8 ± 2.6
C=CCCCCCC [oct-1-ene] + COCC[N+]1(C)CCCC1.O=S(=O)([N-]S(=O)(=O)C(F)(F)F)C(F)(F)F | 20.8 ± 1.4 | 19.5 ± 1.3 | 18.2 ± 1.2 | 17.3 ± 1.2 | 16.3 ± 1.1 | 15.6 ± 1.1
CCCCCCCC [octane] + COCC[N+]1(C)CCCC1.O=S(=O)([N-]S(=O)(=O)C(F)(F)F)C(F)(F)F | 40.5 ± 2.8 | 36.9 ± 2.5 | 33.9 ± 2.3 | 31.4 ± 2.1 | 29 ± 2 | 27 ± 1.8
CCCC(C)=O [pentan-2-one] + COCC[N+]1(C)CCCC1.O=S(=O)([N-]S(=O)(=O)C(F)(F)F)C(F)(F)F | 0.83 ± 0.05 | 0.84 ± 0.05 | 0.86 ± 0.06 | 0.87 ± 0.06 | 0.89 ± 0.06 | 0.9 ± 0.06
CCC(=O)CC [pentan-3-one] + COCC[N+]1(C)CCCC1.O=S(=O)([N-]S(=O)(=O)C(F)(F)F)C(F)(F)F | 0.831 ± 0.054 | 0.851 ± 0.055 | 0.871 ± 0.056 | 0.887 ± 0.056 | 0.905 ± 0.057 | 0.919 ± 0.058
CCCCC [pentane] + COCC[N+]1(C)CCCC1.O=S(=O)([N-]S(=O)(=O)C(F)(F)F)C(F)(F)F | 13.4 ± 0.9 | 12.7 ± 0.9 | 12.1 ± 0.8 | 11.5 ± 0.8 | 11 ± 0.8 | 10.5 ± 0.7
CCCO [propan-1-ol] + COCC[N+]1(C)CCCC1.O=S(=O)([N-]S(=O)(=O)C(F)(F)F)C(F)(F)F | 2.2 ± 0.15 | 2.02 ± 0.14 | 1.86 ± 0.13 | 1.71 ± 0.11 | 1.58 ± 0.1 | 1.48 ± 0.1
CC(C)O [propan-2-ol] + COCC[N+]1(C)CCCC1.O=S(=O)([N-]S(=O)(=O)C(F)(F)F)C(F)(F)F | 2 ± 0.14 | 1.83 ± 0.12 | 1.67 ± 0.11 | 1.54 ± 0.1 | 1.43 ± 0.09 | 1.34 ± 0.09
c1ccncc1 [pyridine] + COCC[N+]1(C)CCCC1.O=S(=O)([N-]S(=O)(=O)C(F)(F)F)C(F)(F)F | 0.602 ± 0.042 | 0.61 ± 0.043 | 0.618 ± 0.043 | 0.625 ± 0.043 | 0.633 ± 0.044 | 0.639 ± 0.044
C=Cc1ccccc1 [styrene] + COCC[N+]1(C)CCCC1.O=S(=O)([N-]S(=O)(=O)C(F)(F)F)C(F)(F)F | 1.29 ± 0.08 | 1.32 ± 0.09 | 1.33 ± 0.09 | 1.36 ± 0.09 | 1.37 ± 0.09 | 1.39 ± 0.09
C1CCOC1 [tetrahydrofuran] + COCC[N+]1(C)CCCC1.O=S(=O)([N-]S(=O)(=O)C(F)(F)F)C(F)(F)F | 0.81 ± 0.05 | 0.83 ± 0.05 | 0.84 ± 0.05 | 0.86 ± 0.06 | 0.87 ± 0.06 | 0.88 ± 0.06
c1ccsc1 [thiophene] + COCC[N+]1(C)CCCC1.O=S(=O)([N-]S(=O)(=O)C(F)(F)F)C(F)(F)F | 0.885 ± 0.056 | 0.897 ± 0.057 | 0.909 ± 0.058 | 0.918 ± 0.058 | 0.929 ± 0.059 | 0.938 ± 0.059
Cc1ccccc1 [toluene] + COCC[N+]1(C)CCCC1.O=S(=O)([N-]S(=O)(=O)C(F)(F)F)C(F)(F)F | 1.48 ± 0.1 | 1.5 ± 0.1 | 1.51 ± 0.1 | 1.53 ± 0.1 | 1.55 ± 0.1 | 1.56 ± 0.1
O [water] + COCC[N+]1(C)CCCC1.O=S(=O)([N-]S(=O)(=O)C(F)(F)F)C(F)(F)F | 3.15 ± 0.21 | 2.81 ± 0.19 | 2.51 ± 0.17 | 2.26 ± 0.15 | 2.05 ± 0.14 | 1.85 ± 0.12
